Data from patent publication US12064437B2, “Methods for treating systemic lupus erythematosus and the use of biomarkers as a predictor of clinical sensitivity to therapies” (CELGENE CORPORATION, priority 2020, dated 2024).

Test system: subjects with active autoantibody-positive SLE
Assay: Phase 2b study in SLE: SLE Responder Index 4 (SRI-4) response at week 24
Type: in vivo, human
Settings: for Percentage of Subjects Who Achieve SRI(4) at Week 24, n/m (%) / SRI(4) at Week 24, Stratified Difference (%) (95% CI), Iberdomide - Placebo: ITT; for SRI-4 treatment effect versus placebo: week 24
Protocol: The pharmacokinetics, pharmacodynamics (PD), efficacy, and safety of oral iberdomide ((S)-3-[4-({4-[(morpholin-4-yl)methyl]phenyl}methoxy)-1-oxo-1,3-dihydro-2H-isoindol-2-yl]piperidine-2,6-dione-hydrogen chloride (1/1)) were evaluated in a phase 2b study in subjects with active autoantibody-positive SLE.
Adult SLE patients (N=288) with a ≥6-month history of SLE and SLE Disease Activity Index (SLEDAI 2K) ≥6 were randomized to placebo (n=83) or iberdomide 0.15 mg QD (n=42), 0.3 mg QD (n=82), or 0.45 mg QD (n=81). Clinical response was determined by the SLE Responder Index 4 (SRI-4) at week 24 for all patients and within pre-specified biomarker-enriched subsets based on expression of Ikaros, Aiolos, the Type 1 IFN signature (IFI27, IFI44, IFI44L, RSAD2), and other gene modules measured from fingerstick blood collected at baseline (Modular Immune Profile Test, DxTerity Diagnostics, Inc.). The primary objective of the study was to evaluate the clinical efficacy of 3 doses of iberdomide (0.45 mg once per day [QD], 0.30 mg QD, or 0.15 mg QD) compared to placebo, for the treatment of active SLE using the SLE Responder Index at Week 24.

[1] = B cell: High at baseline, 0.15 mg QD
[2] = B cell: High at baseline, 0.30 mg QD
[3] = B cell: High at baseline, 0.45 mg QD
[4] = IKZF1: High at baseline, 0.15 mg QD
[5] = IKZF1: High at baseline, 0.30 mg QD
[6] = IKZF1: High at baseline, 0.45 mg QD
[7] = IKZF1 Status of SNP rs4917014: 1 or 2 Copies, 0.15 mg QD
[8] = IKZF1 Status of SNP rs4917014: 1 or 2 Copies, 0.30 mg QD
[9] = IKZF1 Status of SNP rs4917014: 1 or 2 Copies, 0.45 mg QD
[10] = IKZF3 (Aiolos): High at baseline, 0.45 mg QD
[11] = Ikaros IFN: High at baseline, 0.15 mg QD
[12] = Ikaros IFN: High at baseline, 0.30 mg QD
[13] = Ikaros IFN: High at baseline, 0.45 mg QD

O=C1CC[C@H](N2Cc3c(OCc4ccc(CN5CCOCC5)cc4)cccc3C2=O)C(=O)N1 [iberdomide, (S)-3-[4-({4-[(morpholin-4-yl)methyl]phenyl}methoxy)-1-oxo-1,3-dihydro-2H-isoindol-2-yl]piperidine-2,6-dione-hydrogen chloride (1/1)]
SRI(4) stratified difference from placebo (0 copies of IKZF1 rs4917014 protective minor allele (G), 0.45 mg QD): 6.1%
estimated SRI-4 response rate (Aiolos (IKZF3) gene expression cutoff −0.49, 0.45 mg dose, prevalence vs. cutoff analysis): 60-65%
Percentage of Subjects Who Achieve SRI(4) at Week 24, n/m (%) [1]: 8/24 (33.3) %
SRI(4) at Week 24, Stratified Difference (%) (95% CI), Iberdomide - Placebo [1]: −0.7 (−22.56, 22.94) %
Percentage of Subjects Who Achieve SRI(4) at Week 24, n/m (%) [2]: 19/49 (38.8) %
SRI(4) at Week 24, Stratified Difference (%) (95% CI), Iberdomide - Placebo [2]: 4.5 (−15.06, 23.69) %
Percentage of Subjects Who Achieve SRI(4) at Week 24, n/m (%) [3]: 30/54 (55.6) %
SRI(4) at Week 24, Stratified Difference (%) (95% CI), Iberdomide - Placebo [3]: 20.4 (0.74, 38.01) %
SRI-4 treatment effect versus placebo (IFN High Aiolos High double-positive population, high dose 0.45 mg): 29.8%
SRI-4 treatment effect versus placebo (IFN High Aiolos High double-positive population, low dose 0.15 mg): 29.8%
SRI-4 treatment effect versus placebo (IFN High Aiolos Low population, low dose 0.15 mg): 26.8%
SRI-4 treatment effect versus placebo (IFN Low Aiolos High subset, high dose 0.45 mg): 35.0%
Percentage of Subjects Who Achieve SRI(4) at Week 24, n/m (%) [4]: 12/28 (42.9) %
SRI(4) at Week 24, Stratified Difference (%) (95% CI), Iberdomide - Placebo [4]: 7.0 (−14.36, 28.68) %
Percentage of Subjects Who Achieve SRI(4) at Week 24, n/m (%) [5]: 21/53 (39.6) %
SRI(4) at Week 24, Stratified Difference (%) (95% CI), Iberdomide - Placebo [5]: 2.4 (−15.87, 20.58) %
Percentage of Subjects Who Achieve SRI(4) at Week 24, n/m (%) [6]: 35/64 (54.7) %
SRI(4) at Week 24, Stratified Difference (%) (95% CI), Iberdomide - Placebo [6]: 16.1 (−1.76, 32.65) %
Percentage of Subjects Who Achieve SRI(4) at Week 24, n/m (%) [7]: 11/21 (52.4) %
SRI(4) at Week 24, Stratified Difference (%) (95% CI), Iberdomide - Placebo [7]: 23.0 (−2.36, 46.07) %
Percentage of Subjects Who Achieve SRI(4) at Week 24, n/m (%) [8]: 18/46 (39.1) %
SRI(4) at Week 24, Stratified Difference (%) (95% CI), Iberdomide - Placebo [8]: 7.9 (−12.18, 26.84) %
Percentage of Subjects Who Achieve SRI(4) at Week 24, n/m (%) [9]: 20/36 (55.6) %
SRI(4) at Week 24, Stratified Difference (%) (95% CI), Iberdomide - Placebo [9]: 21.3%
Percentage of Subjects Who Achieve SRI(4) at Week 24, n/m (%) (IKZF3 (Aiolos): High at baseline, 0.15 mg QD): 5/14 (35.7) %
SRI(4) at Week 24, Stratified Difference (%) (95% CI), Iberdomide - Placebo (IKZF3 (Aiolos): High at baseline, 0.15 mg QD, listed as Iberdomide): 2.2 (−24.82, 31.94) %
Percentage of Subjects Who Achieve SRI(4) at Week 24, n/m (%) (IKZF3 (Aiolos): High at baseline, 0.30 mg QD): 9/32 (28.1) %
SRI(4) at Week 24, Stratified Difference (%) (95% CI), Iberdomide - Placebo (IKZF3 (Aiolos): High at baseline, 0.30 mg QD, listed as Iberdomide): −7.1 (−31.13, 16.94) %
Percentage of Subjects Who Achieve SRI(4) at Week 24, n/m (%) [10]: 23/36 (63.9) %
SRI(4) at Week 24, Stratified Difference (%) (95% CI), Iberdomide - Placebo [10]: 32.9%
SRI(4) at Week 24, Stratified Difference (%) (95% CI), Iberdomide - Placebo (IKZF3 (Aiolos): High at baseline, 0.45 mg QD, listed as Iberdomide): 32.9 (7.74, 52.90) %
Percentage of Subjects Who Achieve SRI(4) at Week 24, n/m (%) [11]: 16/30 (53.3) %
SRI(4) at Week 24, Stratified Difference (%) (95% CI), Iberdomide - Placebo [11]: 18.6 (−3.69, 39.05) %
Percentage of Subjects Who Achieve SRI(4) at Week 24, n/m (%) [12]: 21/49 (42.9) %
SRI(4) at Week 24, Stratified Difference (%) (95% CI), Iberdomide - Placebo [12]: 8.9 (−10.47, 27.36) %
Percentage of Subjects Who Achieve SRI(4) at Week 24, n/m (%) [13]: 36/62 (58.1) %
SRI(4) at Week 24, Stratified Difference (%) (95% CI), Iberdomide - Placebo [13]: 24.3%
SRI(4) at Week 24, Stratified Difference (%) (95% CI), Iberdomide - Placebo (Ikaros IFN: High at baseline, 0.45 mg QD, listed as Iberdomide): 24.3 (5.45, 40.76) %
SRI(4) at Week 24, Stratified Difference (%) (95% CI), Iberdomide - Placebo (Overall Subjects, 0.15 mg QD): 11.4%
Percentage of Subjects Who Achieve SRI(4) at Week 24, n/m (%) (Overall Subjects, 0.15 mg QD, nonresponder imputation): 20/42 (47.6) %
SRI(4) at Week 24, Stratified Difference (%) (95% CI), Iberdomide - Placebo (Overall Subjects, 0.15 mg QD, listed as Iberdomide): 11.4 (−6.57, 29.00) %
SRI(4) at Week 24, Stratified Difference (%) (95% CI), Iberdomide - Placebo (Overall Subjects, 0.30 mg QD): 5.0%
Percentage of Subjects Who Achieve SRI(4) at Week 24, n/m (%) (Overall Subjects, 0.30 mg QD, nonresponder imputation): 33/82 (40.2) %
SRI(4) at Week 24, Stratified Difference (%) (95% CI), Iberdomide - Placebo (Overall Subjects, 0.30 mg QD, listed as Iberdomide): 5.0 (−9.77, 19.48) %
SRI(4) at Week 24, Stratified Difference (%) (95% CI), Iberdomide - Placebo (Overall Subjects, 0.45 mg QD): 19.4%
